Measured values as given in article PMC8781960, “Structural Basis of 2-Phenylamino-4-phenoxyquinoline Derivatives as Potent HIV-1 Non-Nucleoside Reverse Transcriptase Inhibitors” (Molecules, 2022).
Marks after values point to notes of the source that are not given here.

How the values were obtained:
HIV-1 RT = target: T1, HIV-1 RT (Human immunodeficiency virus type 1 group M subtype B, UniProt P03366); assay: HIV-1 RT inhibition assay (Roche RT kit, colorimetric ELISA); assay type: biochemical; conditions: for inhibition at 1 µM: read-out: Inhibitory activities (%) against HIV-1 RT
T1 construct: The reaction mixture consisted of template/primer complex, 2′-deoxy-nucleotide-5′-triphosphates (dNTPs), and RT enzyme in lysis buffer; purchased Roche Applied Science, Mannheim, Germany
From the text: The inhibition assay of HIV-1 RT was accomplished using the template/primer hybrid poly(A) × oligo(dT)15, digoxigenin (DIG)- and biotin-labeled nucleotides, an antibody to DIG that was conjugated to peroxidase (anti-DIG-POD), and the peroxidase substrate ABTS. The quantities of DIG- and biotin-labeled dUTP incorporated into DNA represent t HIV-1 RT activity. The HIV-RT inhibition assay was implemented using an RT assay kit (Roche Applied Science, Mannheim, Germany), and the procedures for assaying RT inhibition were performed as described in the kit protocol. […] The reaction mixture consisted of template/primer complex, 2′-deoxy-nucleotide-5′-triphosphates (dNTPs), and RT enzyme in lysis buffer with or without an inhibitor. […] The biotin-labeled dNTPs that were incorporated in the template bound to streptavidin because of the presence of RT. Unbound dNTPs were washed using a wash buffer, and anti-DIG-POD was added to the MTP. The DIG-labeled dNTPs incorporated in the template bound to the anti-DIG-POD antibody. Unbound anti-DIG-POD was also washed elaborately five times using a wash buffer. Finally, the peroxide substrate (ABST) was added to the MTP. A colored reaction product emerged during the cleavage of the substrate catalyzed by […]. The absorbance of the sample was measured at the optical density (OD) at 490 nm using the MTP (enzyme-linked immunosorbent assay [ELISA]) reader. The percentage inhibitory activities of the RT inhibitors were calculated by comparing with that of the sample without an inhibitor. The resulting color intensity was directly proportional to the RT activity. Percentage inhibitory values were calculated using the following formula: Inhibition (%) = [1–(OD value with RT and inhibitor−OD value without RT and inhibitors)/(OD value without inhibitors with RT−OD value without RT and inhibitors)] × 100.

A549 (lung carcinoma) = assay: In vitro cytotoxicity (MTT); conditions: for IC50: Homo sapiens, A549, 48 h, read-out: IC50 A549
Method: (§1) Background control wells contained the same volume as the complete culture medium. […] Samples at various concentrations were added to the microplate and incubated for another 48 h. Cell viability was determined by 3(4,5-dimethylthiazol-2-yl)-2-5-diphenyl tetrazolium bromide (MTT) assay (Sig-ma-Aldrich). The reagent was dissolved in phosphate-buffered saline at 5 mg/mL and filtered to sterilize and remove the small amount of insoluble residue present in some batches of MTT. […] Subsequently, dimethyl sulfoxide (100 µL; Merck, Germany) was added to dissolve the resulting formazan by sonication. The plates were read on a microplate reader (Molecular Devices, CA, USA) using a test wavelength of 550 nm and a reference wavelength of 650 nm. XTT assay for suspension cells was used for MOLT-3 cells.

HL-60 (promyeloblast) = assay: In vitro cytotoxicity (MTT); conditions: for IC50: Homo sapiens, HL-60, 48 h, read-out: IC50 HL-60
Method: as §1

[1] = test system: HeLA (cervical carcinoma); assay: In vitro cytotoxicity (MTT); conditions: for IC50: Homo sapiens, HeLa, read-out: IC50 HeLA
Method: as §1

HepG2 (hepatocarcinoma) = assay: In vitro cytotoxicity (MTT); conditions: for IC50: Homo sapiens, HepG2, 48 h, read-out: IC50 HepG2
Method: as §1

[2] = test system: HuCCA-1 (cholangiocarcinoma); assay: In vitro cytotoxicity (MTT); conditions: for IC50: Homo sapiens, HuCC-A1, 48 h, read-out: IC50 HuCCA-1
Method: as §1

[3] = test system: MDA-MB-231 (hormone-independent breast cancer); assay: In vitro cytotoxicity (MTT); conditions: for IC50: Homo sapiens, MDA-MB-231, 48 h, read-out: IC50 MDA-MB-231
Method: as §1

S102 (Thai liver cancer) = assay: In vitro cytotoxicity (MTT); conditions: for IC50: Homo sapiens, read-out: IC50 S102
Method: as §1

[4] = test system: T47-D (hormone-dependent breast cancer); assay: In vitro cytotoxicity (MTT); conditions: for IC50: Homo sapiens, T47D, read-out: IC50 T47-D
Method: as §1

[5] = test system: MOLT-3 (acute lymphoblastic leukemia); assay: In vitro cytotoxicity (XTT); conditions: for IC50: Homo sapiens, MOLT-3, 48 h, read-out: IC50 MOLT-3
Method: as §1

[6] = test system: MRC-5 (normal embryonic lung cell); assay: In vitro cytotoxicity (MTT), normal cell line; conditions: for IC50: Homo sapiens, MRC5, 48 h, read-out: IC50 MRC-5
Method: as §1

[7] = test system: H69AR (lung cancer, multidrug resistant); assay: In vitro cytotoxicity (MTT); assay type: cell-based, human; conditions: for IC50: Homo sapiens, H69AR, mean ± standard error
Method: Background control wells contained the same volume as the complete culture medium. […] The reagent was dissolved in phosphate-buffered saline at 5 mg/mL and filtered to sterilize and remove the small amount of insoluble residue present in some batches of MTT. […] Subsequently, dimethyl sulfoxide (100 µL; Merck, Germany) was added to dissolve the resulting formazan by sonication. The plates were read on a microplate reader (Molecular Devices, CA, USA) using a test wavelength of 550 nm and a reference wavelength of 650 nm.

[8] = at 50 µg/mL, inactive (IC50 ≥ 50 µg/mL)
[9] = normal cell line, at 50 µg/mL, inactive (IC50 ≥ 50 µg/mL)

Compound	inhibition at 1 µM (HIV-1 RT) [%]	IC50 (A549 (lung carcinoma)) [µM]	IC50 (HL-60 (promyeloblast)) [µM]	IC50 ([1]; 48 h) [µM]	IC50 (HepG2 (hepatocarcinoma)) [µM]	IC50 [2] [µM]	IC50 [3] [µM]	IC50 (S102 (Thai liver cancer); 48 h) [µM]	IC50 ([4]; 48 h) [µM]	IC50 [5] [µM]	IC50 ([7]; 48 h) [µM]	%C percentage cytotoxicity T47-D [4, 8]	%C percentage cytotoxicity MRC-5 [6, 9]	%C percentage cytotoxicity H69AR ([7]; human, 48 h, 50 µg/mL)	%C percentage cytotoxicity A549 (A549 (lung carcinoma); [8])	%C percentage cytotoxicity HL-60 (HL-60 (promyeloblast); [8])	%C percentage cytotoxicity HepG2 (HepG2 (hepatocarcinoma); [8])	%C percentage cytotoxicity HuCCA-1 [2, 8]	%C percentage cytotoxicity MDA-MB-231 [3, 8]	%C percentage cytotoxicity S102 (S102 (Thai liver cancer); [8])	other results
Cc1cc(C=O)cc(C)c1Oc1cc(Oc2c(C)cc(C=O)cc2C)c2ccccc2n1 [Compound 4b, 2,4-di-(2′,6′-Dimethyl-4′-formylphenoxy)-quinoline]	42.1 ± 2.5	38.5 ± 1.3	5.7 ± 2	5.3 ± 0.2	50.6 ± 1.2	11.1 ± 0.7	15.3 ± 1.6	89.4 ± 0.1	22.5 ± 3.3	61.6 ± 0.7	30.9 ± 5.7										IC50 [6]: 60.4 ± 2 µM; melting point: 120.5 to 121 °C
Cc1cc(C=O)cc(C)c1Oc1cc(Nc2ccc(C#N)cn2)nc2ccccc12 [Compound 6b, 4-(2’,6’-Dimethyl-4’-formylphenoxy)-2-(5″-cyanopyridin-2″ylamino)quinoline]	44.5 ± 2.8	108 ± 1.2	20.5 ± 2.1	25.7 ± 0.8	92.8 ± 11.8	126 ± 1.8	103 ± 1.9	112 ± 1.8		12.7 ± 1.1		%C = 38.0 ^c	%C = 26.1 ^c	%C = 21.0 ^c							IC50 (HIV-1 RT): 1.93 µM; cytotoxicity toward normal embryonic lung (MRC-5) cells, in words [6]: very low cytotoxicity; melting point: 275.7 to 276.5 °C
COc1cccc2c1C(=O)c1c(O)c3c(c(O)c1C2=O)C[C@@](O)(C(=O)CO)C[C@@H]3O[C@H]1C[C@H](N)[C@H](O)[C@H](C)O1 [Doxorubicin, reference compound]		0.6	0.1	0.4	0.6	0.9	2.5 ± 0.1	2.2	1.2	0.02	34.3 ± 0.1										IC50 [6]: 3.1 ± 0.5 µM
Cc1cc(/C=C/C#N)cc(C)c1Oc1cc(Nc2ccc(C#N)cn2)nc2ccccc12 [Compound 10b-trans, 4-(4′-(2″-(E, Z)-cyanovinyl)-2′,6′-dimethyl-phenoxy)-2-(5″-cyanopyridin-2″ylamino)-aminoquinoline]	32.4 ± 3.5											%C = 0.0 ^c	%C = 0.0 ^c	%C = 0.0 ^c	%C = 1.0 ^c	%C = 31.0 ^c	%C = 1.0 ^c	%C = 0.0 ^c	%C = 17.0 ^c	%C = 3.1 ^c	%C percentage cytotoxicity HeLA [1, 8]: %C = 10.0 ^c; %C percentage cytotoxicity MOLT-3 [5, 8]: %C = 2.0 ^c
O=C1Nc2ccc(Cl)cc2[C@@](C#CC2CC2)(C(F)(F)F)O1 [EFV, efavirenz, reference compound]		60.2 ± 1.8	33.7 ± 1.1	46.2 ± 1.3	86.6 ± 3.9	59.6 ± 2.4	77.7 ± 5.6	93.5 ± 4.7	59.2 ± 0.8	24.6 ± 1.2	105 ± 3.4										IC50 [6]: 95.6 ± 6 µM
4,4′-di-(2’,6’-Dimethyl-4’-formylphenoxy)-2,2′-biquinoline [Compound 7b]																					Inhibitory activities (%) against HIV-1 RT (HIV-1 RT; 1 µM, mean ± standard error): 30.3 ± 2.3%
Cc1cc(/C=C\C#N)cc(C)c1Oc1cc(Nc2ccc(C#N)cn2)nc2ccccc12 [Compound 10b-cis, 4-(4′-(2″-(E, Z)-cyanovinyl)-2′,6′-dimethyl-phenoxy)-2-(5″-cyanopyridin-2″ylamino)-aminoquinoline]	29.4 ± 3.6											%C = 0.0 ^c	%C = 0.0 ^c	%C = 0.0 ^c	%C = 0.0 ^c	%C = 5.0 ^c	%C = 0.0 ^c	%C = 0.0 ^c	%C = 0.0 ^c	%C = 0.0 ^c	%C percentage cytotoxicity HeLA [1, 8]: %C = 0.0 ^c; %C percentage cytotoxicity MOLT-3 [5, 8]: %C = 11.0 ^c
Cc1cc(/C=C/C#N)cc(C)c1Oc1cc(Nc2ccc(C#N)cc2)nc2ccccc12 [Compound 9b-trans, 4-(4′-(2″-(E, Z)-cyanovinyl)-2′,6′-dimethyl-phenoxy)-2-(4″-cyanophenyl)-aminoquinoline]	35.9 ± 3.1											%C = 0.0 ^c	%C = 28.4 ^c	%C = 14.0 ^c	%C = 8.0 ^c	%C = 17.0 ^c	%C = 42.9 ^c	%C = 8.0 ^c	%C = 24.9 ^c	%C = 0.0 ^c	%C percentage cytotoxicity HeLA [1, 8]: %C = 38.0 ^c; %C percentage cytotoxicity MOLT-3 [5, 8]: %C = 19.0 ^c
Cc1ccnc2c1NC(=O)c1cccnc1N2C1CC1 [NVP, nevirapine, reference compound]	53.4 ± 2.7																				%C percentage cytotoxicity A549 (A549 (lung carcinoma); human, 48 h, 50 µg/mL): %C = 18.0 ^c; %C percentage cytotoxicity HL-60 (HL-60 (promyeloblast); human, 48 h, 50 µg/mL): %C = 3.0 ^c; %C percentage cytotoxicity HeLA ([1]; human, 48 h, 50 µg/mL): %C = 34.0 ^c; %C percentage cytotoxicity HepG2 (HepG2 (hepatocarcinoma); human, 48 h, 50 µg/mL): %C = 15.4 ^c; %C percentage cytotoxicity HuCCA-1 ([2]; human, 48 h, 50 µg/mL): %C = 11.0 ^c; %C percentage cytotoxicity MDA-MB-231 ([3]; human, 48 h, 50 µg/mL): %C = 8.9 ^c; %C percentage cytotoxicity S102 (S102 (Thai liver cancer); human, 48 h, 50 µg/mL): %C = 3.0 ^c; %C percentage cytotoxicity T47-D ([4]; human, 48 h, 50 µg/mL): %C = 14.0 ^c; %C percentage cytotoxicity MOLT-3 ([5]; human, 48 h, 50 µg/mL): %C = 29.0 ^c; %C percentage cytotoxicity MRC-5 ([6]; human, 48 h, 50 µg/mL): %C = 1.0 ^c; %C percentage cytotoxicity H69AR [7, 8]: %C = 8.0 ^c
COc1cc([C@@H]2c3cc4c(cc3[C@@H](O[C@@H]3O[C@@H]5CO[C@@H](C)O[C@H]5[C@H](O)[C@H]3O)[C@H]3COC(=O)[C@H]23)OCO4)cc(OC)c1O [Etoposide, etoposide, reference compound]			0.8 ± 0.1		49.9 ± 1.1					0.03											
Cc1cc(/C=C\C#N)cc(C)c1Oc1cc(Nc2ccc(C#N)cc2)nc2ccccc12 [Compound 9b-cis, 4-(4′-(2″-(E, Z)-cyanovinyl)-2′,6′-dimethyl-phenoxy)-2-(4″-cyanophenyl)-aminoquinoline]	32.5 ± 2.8			97.2 ± 5.1						52.8 ± 2.1		%C = 5.0 ^c	%C = 0.0 ^c	%C = 0.0 ^c	%C = 1.0 ^c	%C = 42.0 ^c	%C = 9.8 ^c	%C = 10.0	%C = 10.0 ^c	%C = 0.0 ^c	
Cc1cc(/C=C/C#N)cc(C)c1Nc1ccnc(Nc2ccc(C#N)cc2)n1 [RPV, rilpivirine, reference compound]	97.1 ± 0.9		11.5 ± 0.8	11.3 ± 1.2	87.4 ± 0.1	61.3 ± 1.7	25.3 ± 2.9	22.5 ± 1.2	15 ± 1.3	4.3 ± 0.5	57.1 ± 2		%C = 14.4 ^c		%C = 42.0 ^c						IC50 (HIV-1 RT): 0.06 µM; cytotoxicity toward normal embryonic lung (MRC-5) cells, in words [6]: very low cytotoxicity
